Laboratory results from US10166271B2, “Methods for promoting hair growth” (THE REGENTS OF THE UNIVERSITY OF CALIFORNIA, priority 2006, dated 2019).

System: CRF-OE mice
Test: Subcutaneous implanted mini-pump in CRF-OE mice, hair growth
Assay type: in vivo
Conditions: 10 μg/mouse/day for 7 days, implanted mini-pump sc; CRF-OE male and female mice 5-7 months old
Text: Eight (8) out of 9 (89%) female mice responded to injected (sc) astressin B with increased pigmentation and hair growth. The remaining […] female mice were observed qualitatively. Similarly, 4 out of 4 (100%) of the male mice responded to astressin B with increased pigmentation and hair growth. In contrast, none of the astressin 2B-injected mice (0%) grew significant amounts of hair.

cyclo(31-34)[DPhe11, His12, CαMeLeu13,39, Nle17, Glu31, Lys34]Ac-Sau(8-40) [Astressin 2B, reference compound]
Hair growth for 1 month post treatment: no hair growth was observed
